From patent publication US20230212163A1, “2-(HET)ARYL-SUBSTITUTED CONDENSED HETEROCYCLIC DERIVATIVES AS PEST CONTROL AGENTS” (Bayer Aktiengesellschaft, priority 2020, published 2023)

What was measured:
Assay type in all cases: in vivo
Diabrotica balteata = Diabrotica balteata spray test; settings: after 7 days; for pest or weed control at 100 g/ha / pest or weed control at 500 g/ha / pest or weed control at 20 g/ha: Diabrotica balteata, 168 h; for pest or weed control at 500 g/ha: application rate 500 g/ha (=160 μg/cavity), read-out: efficacy; for pest or weed control at 20 g/ha: application rate 20 g/ha
Protocol: [table] To produce a suitable active compound formulation, 1 part by weight of active compound is dissolved using the stated parts by weight of solvent and made up with water containing an emulsifier concentration of 1000 ppm until the desired concentration is attained. To produce further test concentrations, the formulation is diluted with emulsifier-containing water. Pre-swollen wheat grains (Triticum aestivum) are incubated in a multiwell plate filled with agar and a little water for one day (5 seed grains per cavity). The germinated wheat grains are sprayed with an active compound formulation of the desired concentration. Subsequently, each cavity is infected with 10-20 beetle larvae of Diabrotica balteata. After 7 days, the efficacy in % is determined. 100% means that all wheat plants have grown as in the untreated, uninfected control; 0% means that no wheat plant has grown.

Spodoptera frugiperda = Spodoptera frugiperda spray test (maize leaf discs); settings: application rate 100 g/ha, after 7 days; for pest or weed control at 100 g/ha: Spodoptera frugiperda, foliar, 168 h
Protocol: [table] To produce a suitable active compound formulation, 1 part by weight of active compound is dissolved using the stated parts by weight of solvent and made up with water containing an emulsifier concentration of 1000 ppm until the desired concentration is attained. To produce further test concentrations, the formulation is diluted with emulsifier-containing water. Leaf discs of maize (Zea mays) are sprayed with an active compound formulation of the desired concentration and, after drying, populated with caterpillars of the fall armyworm (Spodoptera frugiperda). After 7 days, the efficacy in % is determined. 100% means that all the caterpillars have been killed; 0% means that no caterpillar has been killed.

Nezara viridula = Nezara viridula spray test; settings: application rate 500 g/ha, after 4 days; for pest or weed control at 500 g/ha: Nezara viridula, 96 h
Protocol: [table] To produce a suitable active compound formulation, 1 part by weight of active compound is dissolved using the stated parts by weight of solvent and made up with water containing an emulsifier concentration of 1000 ppm until the desired concentration is attained. To produce further test concentrations, the formulation is diluted with emulsifier-containing water. Barley plants (Hordeum vulgare) are sprayed with an active compound formulation of the desired concentration and are infected with larvae of the Southern green shield bug (Nezara viridula). After 4 days, the efficacy in % is determined. 100% means that all of the shield bugs have been killed; 0% means that none of the shield bugs have been killed.

`CCS(=O)(=O)c1ccc(-n2ncn(-c3ccc(I)cc3)c2=O)nc1-c1nc2cc(S(=O)(=O)C(F)(F)Cl)ccc2o1` [Example I-11] was tested, and the pest or weed control at 100 g/ha (Diabrotica balteata; application rate 100 g/ha) was 100%, the pest or weed control at 500 g/ha (Diabrotica balteata) was 100% and the pest or weed control at 100 g/ha (Spodoptera frugiperda) was 100%.
Work on `CCS(=O)(=O)c1ccc(-n2ncn(-c3ccc(Cl)cc3)c2=O)nc1-c1nc2cc(S(=O)(=O)C(F)(F)Cl)ccc2o1` [Example I-08] yielded a pest or weed control at 20 g/ha (Diabrotica balteata) of 100%, a pest or weed control at 100 g/ha (Diabrotica balteata; application rate 100 g/ha) of 80% and a pest or weed control at 500 g/ha (Diabrotica balteata) of 100%. For the same compound, the pest or weed control at 100 g/ha (Spodoptera frugiperda) was 100%.
Work on `CCS(=O)(=O)c1ccc(-n2ncn(-c3ccc(F)cc3)c2=O)nc1-c1nc2cc(S(=O)(=O)C(F)(F)C(F)(F)F)ccc2o1` [Example I-52] yielded a pest or weed control at 500 g/ha (Nezara viridula) of 100%, a pest or weed control at 20 g/ha (Diabrotica balteata) of 100% and a pest or weed control at 100 g/ha (Diabrotica balteata; application rate 100 g/ha) of 100%. The pest or weed control at 100 g/ha (Spodoptera frugiperda) was 100%.
`CCS(=O)(=O)c1ccc(-n2ncn(C3CC3)c2=O)nc1-c1nc2cc(OC(F)(F)C(F)(F)F)ccc2o1` [Example I-49] was tested, and the pest or weed control at 20 g/ha (Diabrotica balteata) was 100%, the pest or weed control at 100 g/ha (Diabrotica balteata; application rate 100 g/ha) was 80% and the pest or weed control at 100 g/ha (Spodoptera frugiperda) was 100%.
Work on `CCS(=O)(=O)c1ccc(-n2ncn(-c3cccc(Cl)c3)c2=O)nc1-c1nc2cc(S(=O)(=O)C(F)(F)C(F)(F)F)ccc2o1` [Example I-42] yielded an activity (Nezara viridula) of 90%, an activity (Diabrotica balteata; application rate 100 g/ha) of 80% and an activity (Spodoptera frugiperda) of 100%.
With `CCS(=O)(=O)c1ccc(-n2ncn(-c3cccc(Cl)c3)c2=O)nc1-c1nc2cc(S(=O)(=O)C(F)(F)C(F)(F)F)ccc2o1` [Example I-41] the pest or weed control at 500 g/ha (Nezara viridula) was 100%, the pest or weed control at 20 g/ha (Diabrotica balteata) was 100% and the pest or weed control at 100 g/ha (Diabrotica balteata; application rate 100 g/ha) was 100%. It also gave a pest or weed control at 100 g/ha (Spodoptera frugiperda) of 100%.
Compound `CCS(=O)(=O)c1ccc(-n2ncn(-c3cccc(F)c3)c2=O)nc1-c1nc2cc(OC(F)(F)C(F)(F)F)ccc2o1` [Example I-24] has a pest or weed control at 20 g/ha (Diabrotica balteata) of 100%, a pest or weed control at 100 g/ha (Diabrotica balteata; application rate 100 g/ha) of 100% and a pest or weed control at 100 g/ha (Spodoptera frugiperda) of 100%.
In the case of `CCS(=O)(=O)c1ccc(-n2ncn(-c3ccc(Br)cc3)c2=O)nc1-c1nc2cc(C(F)(F)C(F)(F)F)ccc2o1` [Example I-48], the pest or weed control at 100 g/ha (Diabrotica balteata; application rate 100 g/ha) is reported as 100% and the pest or weed control at 100 g/ha (Spodoptera frugiperda) is reported as 100%.
For `CCS(=O)(=O)c1ccc(-n2ncn(-c3ccc(C4(C#N)CC4)cc3)c2=O)nc1-c1nc2cc(S(=O)(=O)C(F)(F)F)ccc2o1` [Example I-17], the pest or weed control at 20 g/ha (Diabrotica balteata) was 100%, the pest or weed control at 100 g/ha (Diabrotica balteata; application rate 100 g/ha) was 100% and the pest or weed control at 500 g/ha (Diabrotica balteata) was 100%.
Compound `CCS(=O)(=O)c1ccc(-n2ncn(-c3cccc(Br)c3)c2=O)nc1-c1nc2cc(C(F)(F)C(F)(F)F)ccc2o1` [Example I-44] has a pest or weed control at 500 g/ha (Nezara viridula) of 100%, a pest or weed control at 20 g/ha (Diabrotica balteata) of 80% and a pest or weed control at 100 g/ha (Diabrotica balteata; application rate 100 g/ha) of 100%. It also gave a pest or weed control at 100 g/ha (Spodoptera frugiperda) of 100%.
For `CCS(=O)(=O)c1ccc(-n2ncn(-c3cccc(Cl)c3)c2=O)nc1-c1nc2cc(S(=O)(=O)C(F)(F)F)ccc2o1` [Example I-13], the pest or weed control at 20 g/ha (Diabrotica balteata) was 100%, the pest or weed control at 100 g/ha (Diabrotica balteata; application rate 100 g/ha) was 100% and the pest or weed control at 500 g/ha (Diabrotica balteata) was 100%. The pest or weed control at 100 g/ha (Spodoptera frugiperda) was 100%.
`CCS(=O)(=O)c1ccc(-n2ncn(-c3cccc(C#N)c3)c2=O)nc1-c1nc2cc(OC(F)(F)C(F)(F)F)ccc2o1` [Example I-30] gave a pest or weed control at 20 g/ha (Diabrotica balteata) of 100%, a pest or weed control at 100 g/ha (Diabrotica balteata; application rate 100 g/ha) of 100% and a pest or weed control at 100 g/ha (Spodoptera frugiperda) of 100%.
Work on `CCS(=O)(=O)c1ccc(-n2ncn(-c3ccc(F)cc3)c2=O)nc1-c1nc2cc(C(F)(F)F)ncc2o1` [Example I-35] yielded a pest or weed control at 500 g/ha (Nezara viridula) of 100%.
`CCS(=O)(=O)c1ccc(-n2ncn(-c3ccc(Br)c(Cl)c3)c2=O)nc1-c1nc2cc(S(=O)(=O)C(F)(F)F)ccc2o1` [Example I-20] gave a pest or weed control at 20 g/ha (Diabrotica balteata) of 100%, a pest or weed control at 100 g/ha (Diabrotica balteata; application rate 100 g/ha) of 100% and a pest or weed control at 100 g/ha (Spodoptera frugiperda) of 100%.
For `CCS(=O)(=O)c1ccc(-n2ccn(-c3cccc(C4(C#N)CC4)c3)c2=O)nc1-c1nc2cc(C(F)(F)C(F)(F)F)ccc2o1` [Example I-54], the pest or weed control at 20 g/ha (Diabrotica balteata) was 100%, the pest or weed control at 100 g/ha (Diabrotica balteata; application rate 100 g/ha) was 100% and the pest or weed control at 100 g/ha (Spodoptera frugiperda) was 100%.
`CCS(=O)(=O)c1ccc(-n2ncn(-c3ccc(Cl)cc3)c2=O)nc1-c1nc2cc(OC(F)(F)C(F)(F)F)ccc2o1` [Example I-21] showed a pest or weed control at 100 g/ha (Diabrotica balteata; application rate 100 g/ha) of 100% and a pest or weed control at 100 g/ha (Spodoptera frugiperda) of 100%.
`CCS(=O)(=O)c1ccc(-n2ncn(-c3ccc(F)cn3)c2=O)nc1-c1nc2cc(S(=O)(=O)C(F)(F)F)ccc2o1` [Example I-55] showed a pest or weed control at 100 g/ha (Diabrotica balteata; application rate 100 g/ha) of 100% and a pest or weed control at 100 g/ha (Spodoptera frugiperda) of 100%.
